We go through 122 compounds from a melting point compilation (Tetko et al.).

Take `CCN(CC)S(=O)(=O)c1ccc(F)c(C(=O)O)c1`: the melting point (usually the temperature of the solid-liquid transition) is 161 to 163 °C.
The figure for `CN(CCO)C1(CN)CCCCC1` is 73 to 75 °C; for `Cc1ccc(CNC(=O)c2nnc(CCl)s2)cc1` it is 153 to 155 °C.
The figure for `CC(=O)c1cccc(S(=O)(=O)NCC(=O)O)c1` is 188 to 190 °C; for `COc1ccc(-c2nnc(N)s2)cc1` it is 185 to 187 °C; for `CC(C)CCNC(=O)C1CCN(C(=O)CCl)CC1` it is 119 to 121 °C.
The figure for `O=C(O)CCNC(=O)c1ccoc1` is 154 to 156 °C; for `CCOc1cc(C=O)cc(Cl)c1OC` it is 55 to 57 °C.
Consider `CCN(CC)C(=O)c1ccc(NC(=O)CCl)cc1`, for which the melting point lay in the range of 115 to 117 °C.
The value for `Nc1c(Br)c(=O)[nH]c(=O)n1Cc1ccccc1` was 235 to 237 °C; that for `NS(=O)(=O)Cc1ccccc1Br` was 118 to 120 °C.
The figure for `NS(=O)(=O)CCC(=O)O` is 111 to 113 °C; for `COc1c(Cl)cc(C(=O)O)cc1Cl` it is 152 to 154 °C.
`Cc1cc2c(cc1C)OC(C(=O)O)C2` (configuration not stated) showed a melting point of 149 to 151 °C.
The value for `CC1CCC2(CC1)NC(=O)NC2=O` (configuration not stated) was 230 to 232 °C; that for `CC1(C)NC(=O)c2ccccc2O1` was 131 to 133 °C.
On to `O=C1C=CC(=O)N1c1cccc([N+](=O)[O-])c1`, for which the melting point lay within 129 to 131 °C.
The value for `COC(=O)c1ccc(C(N)=S)cc1` was 189 to 191 °C.
The value for `N#Cc1cccc(NC(=O)CSc2ccccc2C(=O)O)c1` was 118 to 120 °C; that for `Nc1ccnn1Cc1ccc(Br)s1` was 83 to 85 °C.
The value for `CC1CCCN(Cc2csc(N)n2)C1` (configuration not stated) was 136 to 138 °C.
`O=C1NC(=O)C2(CCC(c3ccccc3)CC2)N1` (configuration not stated) gave a melting point of 250 to 252 °C.
The figure for `COc1cc2ncc(C(=O)O)c(O)c2cc1OC` is 293 to 295 °C; for `Sc1nnnn1Cc1ccco1` it is 78 to 80 °C; for `N#CCc1ccc2ccccc2n1` it is 45 to 47 °C.
The value for `O=C(O)c1cnc2ccccc2c1SC1CCCC1` was 111 to 113 °C; that for `O=C(Nc1ccc(Br)cn1)C1CCCNC1` (configuration not stated) was 169 to 171 °C.
The figure for `CN1C(=O)C(=O)N(CC(=O)O)C1=O` is 191 to 193 °C; for `CC1=NN(c2nc(C)cc(C)n2)C(=O)C1` it is 109 to 111 °C.
In the case of `O=C(O)Cc1ccc(S(=O)(=O)N2CCOCC2)s1`, the melting point is 116 to 118 °C.
The figure for `O=[N+]([O-])c1cccnc1N1CCC(CO)CC1` is 71 to 73 °C; for `CC1NC(=O)c2ccccc2N(C)C1=O` (configuration not stated) it is 250 to 252 °C.
Consider `COc1cc(C=O)ccc1OCC#N`, for which the melting point lay within 75 to 77 °C.
On to `CC(C)(C)C(=O)N1CCCC1C(=O)O` (configuration not stated), for which the melting point lay within 136 to 138 °C.
The figure for `O/N=C/c1c(Cl)ncn1-c1ccccc1` is 179 to 181 °C.
The value for `CC(=O)CC(=O)c1ccc(Cl)cc1` was 67 to 71 °C; that for `CN(Cc1ccccc1)S(N)(=O)=O` was 92 to 94 °C; that for `NCC1(O)CCC1` was 64 to 66 °C.
The figure for `COC(=O)c1ccc(-c2nc(CCl)cs2)cc1` is 108 to 110 °C; for `Nc1cc(S(=O)(=O)N2CCOCC2)ccc1N1CCOCC1` it is 210 to 212 °C; for `O=C(O)C(Sc1ccccc1Cl)c1ccccc1` (configuration not stated) it is 116 to 118 °C.
For the compound `NS(=O)(=O)C(F)F`, the melting point is 59 to 61 °C.
The figure for `CCC(CC)NC(=O)C(=O)NN` is 177 to 179 °C; for `Cc1nn(CCO)c(N)c1C` it is 129 to 131 °C; for `Cn1cc(N2CCNCC2)cn1` it is 68 to 70 °C.
The value for `CNS(=O)(=O)c1cccc(CN)c1` was 129 to 131 °C; that for `O=C(O)c1ccccc1Oc1ccc(Cl)cc1Cl` was 161 to 163 °C.
For `O=C(Cn1c(Cl)nc2ccccc21)c1ccccc1`, the melting point lay within 168 to 170 °C.
The value for `O=c1[nH]c(CCl)nc2sc3c(c12)CCCC3` was 265 to 267 °C.
The figure for `CCCCNc1c(N)n(Cc2ccccc2)c(=O)[nH]c1=O` is 117 to 119 °C.
The figure for `O=C(O)c1ccc(Sc2ccc(Cl)cc2)cc1` is 203 to 205 °C; for `CCC(C)c1ccc(C(=O)O)cc1` (configuration not stated) it is 88 to 90 °C.
The compound `CCOc1cc(C=O)cc(Br)c1OCc1ccccc1` registered a melting point of 55 to 57 °C.
The value for `Cc1cccc(-n2nc(-c3ccco3)cc2N)c1` was 82 to 84 °C; that for `O=S1(=O)CCNCC12CCCCC2` was 99 to 101 °C.
`CC(C)(C)OC(=O)NCCCn1ccc2cc(C(=O)O)ccc21`: the melting point is 172 to 174 °C.
The value for `Cc1cccc(-c2cc(N)n(Cc3ccccc3)n2)c1` was 79 to 81 °C; that for `COc1ccc(-c2cc(CBr)on2)cc1` was 88 to 90 °C.
The value for `O=C(CCCl)Nc1cccc([N+](=O)[O-])c1` was 75 to 77 °C.
The figure for `O=C(O)Cn1nnc2ccccc21` is 210 to 212 °C.
Compound `C#Cc1cccc(NCC(=O)N2CCOCC2)c1` came in with a melting point of 185 to 187 °C.
`NNC(=O)c1cc(-c2ccccc2)n[nH]1` gave a melting point of 207 to 209 °C.
Compound `CS(=O)(=O)Nc1ccc(N)cc1` came in with a melting point of 114 to 116 °C.
The figure for `CCOC(=O)C(=O)CC(=O)c1ccc(Cl)cc1` is 62 to 64 °C; for `N#CCc1ccc([N+](=O)[O-])cn1` it is 62 to 64 °C.
The figure for `Cn1ncnc1-c1ccc(C(=O)O)cc1` is 240 to 242 °C; for `O=c1[nH]cnc2sc3c(c12)CCCCC3` it is 107 to 109 °C; for `Cc1ccccc1-n1c(C)cc(C(=O)CCl)c1C` it is 65 to 67 °C.
The figure for `O=C(O)C(c1ccccc1)N1CCCCC1=O` (configuration not stated) is 148 to 150 °C; for `CC1CCCC(C)N1C(=O)CCl` (configuration not stated) it is 71 to 73 °C; for `COc1ccc(C(=O)Nc2ccc(C(=O)O)s2)cc1` it is 198 to 200 °C.
As to `Cc1cc2c(Cl)ncnc2s1`, the melting point was 79 to 81 °C.
The figure for `Cc1ccc(NC(=O)OCC(F)(F)F)cc1` is 89 to 93 °C; for `OC(c1ccccc1)C1CCNCC1` (configuration not stated) it is 171 to 173 °C; for `Brc1cnc2nccnc2c1` it is 158 to 160 °C.
The figure for `CCn1ncc2c(C(=O)O)cc(-c3ccccc3)nc21` is 236 to 238 °C; for `O=C(O)CSc1ccc(Br)cc1` it is 117 to 119 °C; for `O=Cc1cc[nH]c1` it is 59 to 61 °C.
Compound `Sc1n[nH]c(C2CC2)n1` had a melting point of 235 to 237 °C.
The figure for `CC(=O)N1CCc2cc(NC(=O)CCl)ccc21` is 233 to 235 °C.
Consider `O=S(=O)(Nc1cccc(Br)c1)c1ccccc1`, for which the melting point is 116 to 118 °C.
The value for `CN(C)c1ccc(C2NCC(CCl)O2)cc1` (configuration not stated) was 104 to 106 °C.
`O=C1CC2(Cc3ccccc3C2)C(=O)O1`: the melting point was 164 to 166 °C.
The figure for `CCOC(=O)Nc1ccc(O)cc1` is 124 to 126 °C.
The figure for `Nc1ncc(Cc2ccccc2)s1` is 106 to 108 °C; for `COc1ccc(C(=O)O)nn1` it is 139 to 141 °C.
The value for `N#Cc1cc(Cl)ccc1OCC(F)(F)F` was 66 to 68 °C.
`COc1ccc(COCC(=O)O)cc1`: the melting point was 41 to 43 °C.
The value for `O=C(O)c1cnoc1-c1ccccc1` was 149 to 151 °C; that for `COc1ccc(CCC(=O)O)cc1O` was 149 to 151 °C; that for `CCCS(=O)(=O)NC(C)C(=O)O` (configuration not stated) was 64 to 66 °C.
The figure for `Cc1ccc(-c2nnc3n2CCCCC3)cc1N` is 171 to 173 °C; for `Cc1ccc(S(=O)(=O)Nc2ccc(N)cc2)cc1` it is 183 to 185 °C; for `O=[N+]([O-])c1c(F)cccc1S(=O)(=O)Cl` it is 52 to 54 °C.
The figure for `Cc1nnc(-c2ccc(C(=O)O)cc2)[nH]1` is 272 to 274 °C; for `Cc1nc(O)nc(C)c1Br` it is 210 to 212 °C; for `Cc1ccc(F)c(-n2cc(O)c(C(=O)O)n2)c1` it is 201 to 203 °C.
Compound `COc1ccc([N+](=O)[O-])cc1CN=[N+]=[N-]` came in with a melting point of 33 to 35 °C.
The value for `Cc1[nH]c2ccc(C(N)=O)cc2c1C` was 169 to 171 °C.
The figure for `O=C(Nc1ccc(Br)cn1)C1CCNCC1` is 144 to 146 °C.
The value for `COc1ccccc1NS(=O)(=O)c1ccc(O)c(N)c1` was 167 to 169 °C.
`O=C(O)c1cccc2c3c([nH]c12)CCCC3`: the melting point was in the range of 190 to 192 °C.
`O=C(CCl)NCC1CCN(c2ccccc2)C1` (configuration not stated) gave a melting point of 61 to 63 °C.
The value for `CN(C)S(=O)(=O)Nc1ccccc1Br` was 78 to 80 °C.
On to `CNC1CCS(=O)(=O)c2ccc(Br)cc21` (configuration not stated), for which the melting point fell in the range of 108 to 110 °C.
The value for `O=C(O)[C@@H]1CCCN1C(=O)NCc1cccc(Br)c1` was 146 to 148 °C; that for `O=C(O)CN1Cc2ccccc2C1` was 209 to 211 °C.
The value for `CC(C)n1[nH]c(-c2ccc(F)cc2)cc1=O` was 156 to 158 °C; that for `NCC1CC(=O)Nc2ccccc21` (configuration not stated) was 142 to 144 °C.
The figure for `O=C(O)c1cccc(NC(=O)c2cccc(Br)c2)c1` is 273 to 275 °C; for `Cc1cc(NC(=O)OC(C)(C)C)ccc1N` it is 103 to 105 °C; for `CCOc1ccc(NC(=O)CC#N)cc1` it is 95 to 100 °C.
For the compound `NS(=O)(=O)c1ccc(C(=O)O)cc1Br`, the melting point was in the range of 201 to 203 °C.
As for `CCc1nnn[nH]1`, the melting point lay within 93 to 95 °C.
The compound `Fc1ccc(-c2nnc(CCl)o2)cc1` showed a melting point of 138 to 140 °C.
The value for `N#Cc1cc([N+](=O)[O-])cnc1O` was 259 to 261 °C; that for `Oc1ccc(Br)cc1-c1nn[nH]n1` was 188 to 190 °C.
The figure for `c1ccc(CNc2cccnc2)nc1` is 50 to 52 °C; for `CC(Cl)C(=O)Nc1c(Cl)cccc1Cl` (configuration not stated) it is 144 to 146 °C; for `CSc1cc(C)ccc1C(=O)O` it is 176 to 178 °C.
For `CC1(C)CCc2[nH]c(=O)c(C(=O)O)cc2C1`, the melting point fell in the range of 242 to 244 °C.
The figure for `N#Cc1ccc(OCC2CO2)c([N+](=O)[O-])c1` (configuration not stated) is 85 to 87 °C.
